# Data from patent US12618044B2, “Specification of functional cranial placode derivatives from human pluripotent stem cells” (MEMORIAL SLOAN-KETTERING CANCER CENTER, priority 2013, dated 2026).
# Where no end group is shown, it is not given here.
# Legend:
# Type in all cases: cell-based, human
# SIX1::GFP cells [1] = experiment: High throughput screen for compounds that promote placode induction; conditions: added at day 3, imaged at day 6
# Description: High throughput screen for compounds that promote placode induction: SIX1::GFP cells were cultured according to the PIP-E6 protocol. 1280 test compounds were screened for their ability to enhance placode induction. Each test compound was added to the cell culture media at day 3, and cells were imaged to determine the level of placode induction at day 6. (FIG. 60).
# hESC = experiment: Placode induction from hESC (N-SB versus PIP, SIX1 expression); conditions: for placode fate: high concentrations, starting at day 3 of PIP
# Description: A timed withdrawal of the BMP inhibitor Noggin during N-SB differentiation was also tested to determine if placodal fates could be induced via derepressing endogenous BMP signaling. A time course analysis was performed during which Noggin was removed at different time points of the N-SB protocol (FIG. 28A).
# Withdrawal of the BMP inhibitor noggin during N-SB differentiation may enhance the emergence of placodal fates by de-repressing endogenous BMP signaling. To this end, a time course study was performed by removing noggin at different time points of the NSB protocol (FIG. 11A) while monitoring the induction of placodal marker (FIG. 11B) trophoectodermal, neurectodermal by qRT-PCR analysis at day 11 of differentiation. Withdrawal of noggin at day 2 or 3 of differentiation yielded efficient induction of Six1 while noggin withdrawal at day 1 of differentiation lead to the induction of Eya1 in the absence of Six1 expression.
# Neural Induction and placode induction: Feeder-free neural induction was carried out as previously described (Chambers et al., 2009). Briefly, hESCs cultures were disaggregated using accutase for 20 minutes, washed using hESCs media and pre-plated on gelatin for 1 hour at 37° C. in the presence of ROCK inhibitor to remove MEFs. The non-adherent hESCs were washed and plated on matrigel at a density of 60,000 cells/cm2 on matrigel (BD) coated dishes in MEF conditioned hESCs media (CM) spiked with 10 ng/mL of FGF-2 and ROCK-inhibitor. The ROCK inhibitor was withdrawn after 24 hours, and hESCs were allowed to expand in CM for 2 days or until they were 95% confluent. The initial differentiation media conditions included knock out serum replacement (KSR) media with 10 μM TGF-β inhibitor (SB431542, Tocris) and 250 ng/mL of Noggin (R&D). Upon day 5 of differentiation, increasing amounts of N2 media (25%, 50%, and 75%) were added to the KSR media every two days while maintaining […] of Noggin and TGF-β inhibitor. Similar results could be obtained when using KSR-free conditions (E6 medium (Chen et al., 2011)) following adjustments in BMP signaling; data not shown). For placode induction, Noggin was removed at day3 of differentiation. In some experiments, BMP-4 (R&D 50 ng/ml), Noggin (R&D 250 ng/ml), DKK-1 (R&D 100 ng/ml), FGF8 (R&D 50 ng/ml), SU5402 (Tocris 10 μM), Wnt-3a (R&D 50 ng/ml), DAPT (Tocris, 10 μM), CHIR99021 (Stemgent, 3 μM), Cyclopamine (Tocris, 10 μM), Sonic Hedgehog (C25II-R&D 100 ng/ml), and Purmorphamine (Stemgent, 1 μM), were added.
# Microscopy, antibodies, and flow cytometry: Cells were fixed using 4% paraformaldehyde for 15 minutes, washed with PBS, permeabilized using 0.3% Triton X in PBS, and blocked using 1% BSA. Primary antibodies used for microscopy included PAX6 (Covance, DSHB), TUJ1 (Covance), BRN3A (Chemicon), AP2a (DSHB), HNK1 (Sigma), PAX3 (DSHB), SIX1 (ABR, Atlas), ISL1 (DSHB), PERIPHERIN (Santa Cruz), GSU (gift A. McNeilly), CRYAB (Chemicon), DACH1 (Proteintech), EYA1 (gift Kawakami), E-CADHERIN (Abcam), FSH (gift A. McNeilly), GATA2 (Abcam), chick GFP (Abcam), hNCAM (Santa Cruz), GLUTAMATE (Sigma), KRT14 (Labvision), SIX6 (Atlas), LHX3 (Abcam), OVOL2 (Aviva), TFAP2A (DSHB), FOXG1 (gift E. Lai), hCA (Stem Cells), and Ki67 (Sigma). Appropriate Alexa 488, Alexa 568, Alexa 647 secondary antibodies (Molecular Probes) and/or DAPI counterstaining was used for visualization. For Flow Cytometry, cells were mechanically dissociated after exposure to accutase for 20 min at 25° C. To eliminate dead cell populations in FACS analysis, we used DAPI or 7-AAD according to manufacturer's recommendation. Cells were analyzed using FACScan (Becton Dickinson) and FlowJo software (Tree Star, Inc.).
# [2] = system: SIX1::H2B-GFP reporter cells; experiment: PIP-E6 placode induction in E8/E6 media
# Text: PIP protocol using E8/E6 cell culture media: E8/E6 cell culture media (Essential8™/Essential6™, Nat Methods. 2011 May; 8(5):424-9) comprises the ingredients DMEM/F12, ascorbic acid, selenum, insulin, NaHCO3, transferrin, FGF2 and TGFβ. […] The present example describes a modified PIP protocol that utilizes the BMP deficient E8/E6 media.
# A Six1 knock in GFP reporter cell line (SIX1::H2B-GFP) was developed to monitor when cells have been transformed to a placode fate. (FIGS. 41A-41E). Culturing the reporter cells in E8/E6 media according to the KSR PIP protocol described herein, in which cells were cultured in media comprising the SMAD inhibitors SB431542 and LDN193189, wherein LDN193189 was withdrawn after 2 days of culture, yielded low levels of placode cells after 11 days of culture. (FIGS. 42A-42B). BMP4, which is not present in E8/E6 media, is necessary for cells to differentiate into non-neural ectoderm and placode, as evidenced by expression of the marker AP2. (FIGS. 43A-43C). […] (FIGS. 44A-44C). […] (FIGS. 45A-45B). […] (FIGS. 46 and 47). Although the yield of induced placode cells was low using the PIP-E6 protocol, the induction was highly consistent compared to the KSR PIP protocol. (FIG. 48).
# In order to make the trigeminal placode fate the default fate when culturing using the PIP-E6 protocol, PIP-E6 was modified by adding CHIR (Wnt activator) to the culture protocol. […] (FIGS. 49A-49B). FIG. 50 depicts the pituitary, lens and trigeminal placodes that can be induced using the PIP-E6 culture protocol.
# pre-placode cells = experiment: Lens placode specification (PITX3 qRT-PCR); conditions: added days 7-11, read at day 16
# Description: The impact of four developmental signaling pathways on lens placode specification was tested by using activators and inhibitors of BMP, FGF, WNT, and Hedgehog signaling. To quantify the induction of lens placode fate, the lens precursor marker PITX3 expression was monitored at day 16 of differentiation (FIG. 37B). […] A role for BMPs and FGFs has been previously proposed in developmental studies in the chick (Sjödal et al., 2007). […] The characteristic layering of lens fibers (FIG. 36H, right panel) mimicked the structural properties of developing lens in vivo.
# SIX1::GFP cells [3] = experiment: PIP-E6 pituitary induction and hormone release; conditions: for number of putative pituitary stem cells (Ki67 and Sox2): days 6-14
# Description: Induction of anterior pituitary gland cells: Pituitary placode cells were induced by culturing SIX1::GFP cells according to the PIP-E6 protocol, wherein pituitary factors SHH, FGF8, FGF10 and/or hypothalamus CM were supplemented in the culture media from days 6-15.
# Induction of anterior pituitary gland cells: SIX1::GFP hPSCs were cultured according to a modified PIP-E6 protocol, wherein pituitary factors such as FGF8, FGF10 or SHH, etc., were included in the culture media from days 6-14. Cells were sorted based on expression of SIX1::GFP, and were replated at a concentration of 10,000 cells/cm^2 on PO/L/F, and were incubated with small molecule/growth factors for 2 weeks. (FIG. 68). […] (FIG. 69).
# hESC derived FP = experiment: A/P respecification of hESC derived FP by caudalizing factors
# Description: For MS5 induction, established methods previously reported were used (Perrier et al., 2004). Feeder free neural induction was carried out as previously described (Chambers et al., 2009). Briefly, hESCs cultures were disaggregated using accutase for 20 minutes, washed using hESCs media and pre-plated on gelatin for 1 hour at 37° C. in the presence of ROCK inhibitor to remove MEFs. The nonadherent hESCs were washed and plated on matrigel at a density of 20,000 cells/cm2 on matrigel (BD) coated dishes in MEF conditioned hESCs media (CM) spiked with 10 ng/mL of FGF-2 and ROCK-inhibitor. The ROCK inhibitor was withdrawn, and hESCs were allowed to expand in CM for 3 days or until they were nearly confluent. The initial differentiation media conditions included knock out serum replacement (KSR) media with […] TGF-b inhibitor (SB431542, Tocris) and 500 ng/mL of Noggin (R&D). Upon day 5 of differentiation, increasing amounts of N2 media (25%, 50%, 75%) was added to the KSR media every two days while maintaining 500 ng/mL of Noggin and TGF-b inhibitor. For FP induction, Sonic C25II was added at 200 ng/ml. In some experiments, DKK-1 (R&D 100 ng/ml) FGF8 (R&D 50 ng/ml), Wnt-1 (Peprotech 50 ng/ml) and Retinoic Acid (R&D 1 uM) were added.
# The inventors contemplated the use of SIX6 as a putative marker of anterior FP identity. Thus SIX6 status of the hESC derived FP was used to mark respecification in response to known caudalizing agents such as FGF8, Wnt-1, and Retinoic Acid. Each of these caudalizing factors was added in combination with SHH and the resulting tissue was assessed for expression of the FP markers FOXA2 and NETRIN-1, the AN marker BF1, and putative anterior FP marker SIX6. FP generation was found not compromised in the presence of caudalizing factors.
# The inventors discovered that different factors had varied effects on marker expression (FIG. 20C).
# As mentioned above, studies had identified different enhancers that directed SHH expression to different A/P region along ventral axis (Jeong et al., 2008). […] In the absence of caudalizing factors (SHH C25II alone), LacZ expression was observed herein following transfection with the SBE2 but not the SBE1 enhancer supporting the hypothesis that hESC derived FP is anterior by default (FIG. 20D). In contrast SBE2 activity was abolished upon treatment with Wnt1 or FGF8 while SBE1 activity was induced under these conditions.
molecule,measurement,setting,value
CN1CCC(c2c[nH]c3ccc(O)cc23)CC1 [BRL-54443],placode induction,SIX1::GFP cells [1],promoting placode induction
Cc1c[nH]c(-c2cnc(NCCNc3ccc(C#N)cn3)nc2-c2ccc(Cl)cc2Cl)n1 [CHIR99021],placode fate,hESC,suppressed placode
same,default placode fate,[2]; days 2-4 of the PIP-E6 protocol,induction of trigeminal placodes
O.c1cnc2c(c1)ccc1cccnc12 [Phenanthroline monohydrate],placode induction,SIX1::GFP cells [1],promoting placode induction
Cc1c[nH]c(/C=C2\C(=O)Nc3ccccc32)c1CCC(=O)O [SU5402],TFAP2A expression,hESC; day 3-11 of PIP,maintaining
same,emergence of SIX1+ clusters,hESC; day 3-11 of PIP,suppressed
same,placode marker (SIX1) gene expression,hESC; day 11,complete loss
same,KRT14 mature keratinocyte marker,hESC; long-term cultures (day 42-60),robust induction
same,PITX3 expression,pre-placode cells,significantly induced
FGF2: growth factor,number of putative pituitary stem cells (Ki67 and Sox2),SIX1::GFP cells [3],may increase
"somatocrinin: external stimulus causing growth hormone release (YADAIFTNSYRKVLGQLSARKLLQDIMSRQQGESNQERGARARL; ends and bridges not checked; UniProt P01286 32-75, looked up)",growth hormone (GH) release,SIX1::GFP cells [3]; hormone expressing cells,released growth hormone (GH)
"BMP4: recombinant bone morphogenetic protein-4, activator of BMP signaling (protein, UniProt P12644 293-408, looked up) Bone morphogenetic protein 4: SPKHHSQRARKKNKNCRRHSLYVDFSDVGWNDWIVAPPGYQAFYCHGDCPFPLADHLNSTNHAIVQTLVNSVNSSIPKACCVPTELSAISMLYLDEYDKVVLKNYQEMVVEGCGCR",placode fate,hESC,suppressed placode
same,CDX2 induction,hESC; in the presence of SB,triggered induction of CDX2
same,PITX3 expression,pre-placode cells,significantly induced
same,cell fate induced,"[2]; 5 ng/ml, with SB431542, withdrawn after 3 days",placode development
same,yield of placode precursors,"[2]; 5 ng/ml, withdrawn after 3 days versus 1 or 2 days, 6 total days",highest yield of placode precursors
same,cell fate induced,[2]; 20 ng/ml,induction of non-neural ectoderm
"FGF8: caudalizing factor / pituitary patterning factor (protein, UniProt P55075 23-233, looked up) Fibroblast growth factor 8: QEGPGRGPALGRELASLFRAGREPQGVSQQHVREQSLVTDQLSRRLIRTYQLYSRTSGKHVQVLANKRINAMAEDGDPFAKLIVETDTFGSRVRVRGAETGLYICMNKKGKLIAKSNGKGKDCVFTEIVLENNYTALQNAKYEGWYMAFTRKGRPRKGSKTRQHQREVHFMKRLPRGHHTTEQSLRFEFLNYPPFTRSLRGSQRTWAPEPR",ASCL1 expression,hESC; pre-placode cells,enriches
same,number of putative pituitary stem cells (Ki67 and Sox2),SIX1::GFP cells [3],may increase
same,SBE1 activity,hESC derived FP; SHH enhancer LacZ construct,induced
same,SBE2 activity,hESC derived FP; SHH enhancer LacZ construct,abolished
same,SIX6 expression,hESC derived FP; in combination with SHH,significant reduction
